Structures are written as SMILES. Entries after “also recorded” stand apart in the source; their conditions may differ.

Series [1] relates to H1975 (EGFR^L858R/T790M NSCLC Model). The series is described as follows: Example 3: Compound IV added to afatinib after resistance in H1975 tumor bearing mice. The class given is in vivo. The protocol: EGFRL858R/T790M NSCLC model (H1975) tumor bearing mice were treated with daily oral doses of vehicle or afatinib (20 mg/kg). Once tumors became resistant to afatinib (˜D18), Compound IV (100 mg/kg) was added to the treatment regimen. Tumors were measured […]. Data is plotted to compare tumor growth in each cohort during the treatment. The x-axis is days of treatment measured in time and the y-axis is tumor volume measured in mm^3.
Compound IV in combination with the EGFR-TKI afatinib was tested in an EGFR^L858R/T790M NSCLC model to determine the ability of the combination to reverse afatinib resistance. H1975 (EGFR^L858R/T790M NSCLC Model) tumor bearing mice were treated daily with 20 mg/kg of afatinib. Once tumors became resistant to afatinib (about D18), Compound IV (100 mg/kg) was added to the treatment regimen. Tumors were measured twice a week for 40 days. Data is plotted to compare tumor growth in each cohort during treatment.

Series [2] has as its system EGFR^ex19del/T790M PDX NSCLC tumor fragments (TM00219, Jackson Labs). As to the kind of experiment: Example 4: Compound IV +/- osimertinib in EGFR ex19del/T790M PDX model. To be noted: once daily oral gavage 28 days. Format: in vivo, NSG mice. The source says:
(§1) The x-axis is days from initiation measured in time and the y-axis is mean tumor volume measured in mm^3.
The x-axis is days from initiation measured in time and the y-axis is median tumor volume measured in mm^3.
After 28 days tumors continued to be measured until they reached tumor burden (>2000 mm^3).

In series [3] the test system is H1975 (EGFR^L858R/T790M NSCLC Model). As to the kind of experiment: Example 1: Compound IV + afatinib in H1975 tumor bearing mice. Format: in vivo. To be noted: Compound IV 50 or 100 mg/kg in combination with afatinib 20 mg/kg, daily, 18 days. The protocol: (§2) The x-axis is days of treatment measured in time and the y-axis is tumor volume measured in mm^3.
Compound IV in combination with the EGFR-TKI afatinib was tested in an EGFR^L858R/T790M NSCLC model. The combination of Compound IV in dosages of 50 mg/kg and 100 mg/kg+afatinib was tested and compared to treatment regimens consisting of only Compound IV (in 50 mg/kg dose or a 100 mg/kg) or afatinib (20 mg/kg). H1975 (EGFR^L858R/T790M NSCLC Model) tumor bearing mice were treated daily. Tumors were measured twice a week until vehicle treated mice tumors reached about 1000 mm^3 (18 days). Data is plotted to compare tumor growth in each cohort during the 18 days of treatment.

Series [4] in a line: Study G1T38-01: safety and tolerability in healthy subjects. Format: in vivo, Humans. The source says:
Effects on hematologic parameters were not observed due to the limited duration of dosing.

Series [5] deals with H1975 (EGFR^L858R/T790M NSCLC Model). The series is described as follows: Example 2: Compound IV + erlotinib in H1975 tumor bearing mice. Format: in vivo. Particulars: Compound IV 50 or 100 mg/kg in combination with erlotinib 70 mg/kg, daily, 18 days. The protocol: as §2
Compound IV in combination with the EGFR-TKI erlotinib was tested in an EGFR^L858R/T790M NSCLC model. The combination of Compound IV in dosages of 50 mg/kg and 100 mg/kg+erlotinib was tested and compared to treatment regimens consisting of only Compound IV (in 50 mg/kg dose or a 100 mg/kg) or erlotinib (70 mg/kg). H1975 (EGFR^L858R/T790M NSCLC Model) tumor bearing mice were treated daily. Tumors were measured twice a week until vehicle treated mice tumors reached about 1000 mm^3 (18 days). Data is plotted to compare tumor growth in each cohort during the 18 days of treatment.

Series [6] has as its system EGFR^ex20ins PDX NSCLC tumor fragments (LU0387, CrownBio). The series is described as follows: Example 5: Compound IV +/- osimertinib in EGFR ex20ins PDX model. The class given is in vivo, BALB/c nude mice. To be noted: once daily oral gavage.
Excerpt: as §1
Tumors continued to be measured until they reached tumor burden (>3000 mm3).

Take `CC(C)N1CCN(c2ccc(Nc3ncc4cc5n(c4n3)C3(CCCCC3)CNC5=O)nc2)CC1` [Compound IV]: in series [1] (afatinib 20 mg/kg daily, Compound IV 100 mg/kg added at about D18, 40 days), the “acquired resistance to afatinib (tumor volume)” value is recorded as “reverses acquired resistance to afatinib”. Also, the “decrease of tumor volume, combination vs Compound IV alone and afatinib alone” value in series [1] (as worded in Example 3) and in series [3] was “more effective at decreasing tumor volume” in each case. Further, the “afatinib efficacy and time to resistance (tumor volume)” value in series [1] (as worded in Example 3: Compound IV 50 or 100 mg/kg in combination with afatinib) was “increased the afatinib efficacy and extended the time to resistance”; in series [3] it was “increased the afatinib efficacy and extended the time to resistance; also recorded: increases EGFR-TKI efficacy and extends time to resistance”. The “tumor growth vs vehicle, combination” value is recorded as “tumor stasis during dosing that was sustained post treatment; also recorded: delays tumor growth” in series [2] (Compound IV 100 mg/kg + osimertinib 2.5 mg/kg) and “significant tumor growth delay; also recorded: delays tumor growth” in series [6] (Compound IV 100 mg/kg + osimertinib 10 mg/kg). Further, the “tumor growth vs vehicle, single agent” value is reported as “modest tumor growth inhibition” in series [2] (Compound IV 100 mg/kg or osimertinib 2.5 mg/kg alone) and “did not cause an effect” in series [6] (17 days, Compound IV 100 mg/kg or osimertinib 10 mg/kg alone). For the same compound, the “effect of fed conditions on gastrointestinal tolerability” value in series [4] (dosing under fed conditions) was “appeared to improve gastrointestinal tolerability”. The “effects on hematologic parameters” value in series [4] (limited duration of dosing) is “not observed”. Further, the tolerability result in series [4] (single or twice daily oral doses, 3 to 600 mg/day, healthy male and female subjects) is reported as “well to moderately tolerated”. Also, in series [4] (subjects with moderate tolerability), the “most common moderate intensity TEAEs” value is listed as “gastrointestinal AEs were the most common moderate intensity treatment-emergent AEs”. Besides, the “erlotinib resistance (tumor volume)” value in series [5] was “reversed erlotinib resistance; also recorded: reverses EGFR-TKI acquired resistance”.
